According to patent publication US4731451A, “N-((2-oxo-3(2H)benzothiazolyl)methyl)-2-chloroacetanilides” (Monsanto Company, priority 1980, dated 1988):

Tests used:
Format in all cases: in vivo
Morningglory [1] = test: Pre-emergent herbicidal activity (Table II); details: 2-3 weeks
Procedure, shortened: (§1)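 Seeds or vegetative propagules were sown on compacted top soil in pans and covered with a soil layer mixed with a known amount of active ingredient, applied in solvent or as wettable powder suspension. Pans were kept on a greenhouse bench, watered from below, and injury rated on a fixed scale about 2-3 weeks later.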

Johnsongrass = test: Pre-emergent herbicidal activity (Table II); details: 2-3 weeks
Procedure, shortened: as §1

Velvetleaf [2] = test: Pre-emergent herbicidal activity (Table II); details: 2-3 weeks
Procedure, shortened: as §1

Barnyardgrass [3] = test: Pre-emergent herbicidal activity (Table II); details: 2-3 weeks
Procedure, shortened: as §1

Cocklebur [4] = test: Pre-emergent herbicidal activity (Table II); details: 2-3 weeks
Procedure, shortened: as §1

Smartweed [5] = test: Pre-emergent herbicidal activity (Table II); details: 2-3 weeks
Procedure, shortened: as §1

Downy Brome [6] = test: Pre-emergent herbicidal activity (Table II); details: 2-3 weeks
Procedure, shortened: as §1

Lambsquarters [7] = test: Pre-emergent herbicidal activity (Table II); details: 2-3 weeks
Procedure, shortened: as §1

Quackgrass = test: Pre-emergent herbicidal activity (Table II); details: 2-3 weeks
Procedure, shortened: as §1

Yellow Nutsedge = test: Pre-emergent herbicidal activity (Table II); details: 2-3 weeks
Procedure, shortened: as §1

Canada Thistle = test: Pre-emergent herbicidal activity (Table II); details: 2-3 weeks
Procedure, shortened: as §1

Sorghum = test: Pre-emergent herbicidal activity (Table III)
Procedure, shortened: (§2)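 Seeds or propagules were sown on compacted topsoil in pans and covered with a soil layer premixed with a known amount of active ingredient (solvent or wettable-powder suspension). Pans were kept in a greenhouse with sub-irrigation, and injury was scored on a fixed percent-injury scale about 2-3 weeks later.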

Morningglory [8] = test: Pre-emergent herbicidal activity (Table III)
Procedure, shortened: as §2

Wheat = test: Pre-emergent herbicidal activity (Table III)
Procedure, shortened: as §2

Soybean = test: Pre-emergent herbicidal activity (Table III)
Procedure, shortened: as §2

Velvetleaf [9] = test: Pre-emergent herbicidal activity (Table III)
Procedure, shortened: as §2

Wild Buckwheat = test: Pre-emergent herbicidal activity (Table III)
Procedure, shortened: as §2

Barnyardgrass [10] = test: Pre-emergent herbicidal activity (Table III)
Procedure, shortened: as §2

Cocklebur [11] = test: Pre-emergent herbicidal activity (Table III)
Procedure, shortened: as §2

Panicum = test: Pre-emergent herbicidal activity (Table III)
Procedure, shortened: as §2

Crabgrass = test: Pre-emergent herbicidal activity (Table III)
Procedure, shortened: as §2

Sugarbeet = test: Pre-emergent herbicidal activity (Table III)
Procedure, shortened: as §2

Rice = test: Pre-emergent herbicidal activity (Table III)
Procedure, shortened: as §2

Smartweed [12] = test: Pre-emergent herbicidal activity (Table III)
Procedure, shortened: as §2

Downy Brome [13] = test: Pre-emergent herbicidal activity (Table III)
Procedure, shortened: as §2

Lambsquarters [14] = test: Pre-emergent herbicidal activity (Table III)
Procedure, shortened: as §2

Hemp Sesbania = test: Pre-emergent herbicidal activity (Table III)
Procedure, shortened: as §2
Further: ranges in brackets are in %.

“N--[(2-oxo-3(2H)--benzothiazolyl)methyl]-N--(2-ethyl-6-methyl-1-cyclohexen-1-yl)-2-chloro-acetamide, mixed with its -N--[(2-oxo-3(2H)--benzothiazolyl)methyl]-N--(2-methyl-6-ethyl-1-cyclohexen-1-yl)-2-chloroacetamide [Example 4]” was tested, and the Herbicidal rating (Morningglory [1]; 5.6 kg/ha) was 0 (0-24), the Herbicidal rating (Morningglory [1]; 11.2 kg/ha) was 0 (0-24) and the Herbicidal rating (Johnsongrass; 5.6 kg/ha) was 0 (0-24). For the same substance, the Herbicidal rating (Johnsongrass; 11.2 kg/ha) was 3 (75-100), the Herbicidal rating (Velvetleaf [2]; 5.6 kg/ha) was 0 (0-24) and the Herbicidal rating (Velvetleaf [2]; 11.2 kg/ha) was 0 (0-24). For the same substance, the Herbicidal rating (Barnyardgrass [3]; 5.6 kg/ha) was 3 (75-100), the Herbicidal rating (Barnyardgrass [3]; 11.2 kg/ha) was 3 (75-100) and the Herbicidal rating (Cocklebur [4]; 5.6 kg/ha) was 0 (0-24). The Herbicidal rating (Cocklebur [4]; 11.2 kg/ha) was 0 (0-24), the Herbicidal rating (Smartweed [5]; 5.6 kg/ha) was 0 (0-24) and the Herbicidal rating (Smartweed [5]; 11.2 kg/ha) was 0 (0-24). For the same substance, the Herbicidal rating (Downy Brome [6]; 5.6 kg/ha) was 1 (25-49), the Herbicidal rating (Downy Brome [6]; 11.2 kg/ha) was 1 (25-49) and the Herbicidal rating (Lambsquarters [7]; 5.6 kg/ha) was 1 (25-49). For the same substance, the Herbicidal rating (Lambsquarters [7]; 11.2 kg/ha) was 3 (75-100), the Herbicidal rating (Quackgrass; 5.6 kg/ha) was 0 (0-24) and the Herbicidal rating (Quackgrass; 11.2 kg/ha) was 0 (0-24). The Herbicidal rating (Yellow Nutsedge; 5.6 kg/ha) was 0 (0-24), the Herbicidal rating (Yellow Nutsedge; 11.2 kg/ha) was 0 (0-24) and the Herbicidal rating (Canada Thistle; 5.6 kg/ha) was 1 (25-49). For the same substance, the Herbicidal rating (Canada Thistle; 11.2 kg/ha) was 2 (50-74), the Herbicidal rating (Sorghum; 0.28 kg/ha) was 0 (0-24) and the Herbicidal rating (Sorghum; 1.12 kg/ha) was 0 (0-24). The Herbicidal rating (Sorghum; 5.6 kg/ha) was 0 (0-24), the Herbicidal rating (Morningglory [8]; 0.28 kg/ha) was 1 (25-49) and the Herbicidal rating (Morningglory [8]; 1.12 kg/ha) was 0 (0-24). The Herbicidal rating (Morningglory [8]; 5.6 kg/ha) was 1 (25-49), the Herbicidal rating (Wheat; 0.28 kg/ha) was 0 (0-24) and the Herbicidal rating (Wheat; 1.12 kg/ha) was 0 (0-24). For the same substance, the Herbicidal rating (Wheat; 5.6 kg/ha) was 0 (0-24), the Herbicidal rating (Soybean; 0.28 kg/ha) was 0 (0-24) and the Herbicidal rating (Soybean; 1.12 kg/ha) was 0 (0-24). For the same substance, the Herbicidal rating (Soybean; 5.6 kg/ha) was 0 (0-24), the Herbicidal rating (Velvetleaf [9]; 0.28 kg/ha) was 0 (0-24) and the Herbicidal rating (Velvetleaf [9]; 1.12 kg/ha) was 0 (0-24). For the same substance, the Herbicidal rating (Velvetleaf [9]; 5.6 kg/ha) was 0 (0-24), the Herbicidal rating (Wild Buckwheat; 0.28 kg/ha) was 0 (0-24) and the Herbicidal rating (Wild Buckwheat; 1.12 kg/ha) was 0 (0-24). For the same substance, the Herbicidal rating (Wild Buckwheat; 5.6 kg/ha) was 0 (0-24), the Herbicidal rating (Barnyardgrass [10]; 0.28 kg/ha) was 0 (0-24) and the Herbicidal rating (Barnyardgrass [10]; 1.12 kg/ha) was 3 (75-100). The Herbicidal rating (Barnyardgrass [10]; 5.6 kg/ha) was 3 (75-100), the Herbicidal rating (Cocklebur [11]; 1.12 kg/ha) was 0 (0-24) and the Herbicidal rating (Cocklebur [11]; 5.6 kg/ha) was 3 (75-100). For the same substance, the Herbicidal rating (Panicum; 0.28 kg/ha) was 0 (0-24), the Herbicidal rating (Panicum; 1.12 kg/ha) was 0 (0-24) and the Herbicidal rating (Panicum; 5.6 kg/ha) was 2 (50-74). The Herbicidal rating (Crabgrass; 0.28 kg/ha) was 2 (50-74), the Herbicidal rating (Crabgrass; 1.12 kg/ha) was 3 (75-100) and the Herbicidal rating (Crabgrass; 5.6 kg/ha) was 3 (75-100). For the same substance, the Herbicidal rating (Sugarbeet; 0.28 kg/ha) was 1 (25-49), the Herbicidal rating (Sugarbeet; 1.12 kg/ha) was 0 (0-24) and the Herbicidal rating (Sugarbeet; 5.6 kg/ha) was 1 (25-49). The Herbicidal rating (Rice; 0.28 kg/ha) was 0 (0-24), the Herbicidal rating (Rice; 1.12 kg/ha) was 0 (0-24) and the Herbicidal rating (Rice; 5.6 kg/ha) was 1 (25-49). The Herbicidal rating (Smartweed [12]; 0.28 kg/ha) was 0 (0-24), the Herbicidal rating (Smartweed [12]; 1.12 kg/ha) was 3 (75-100) and the Herbicidal rating (Smartweed [12]; 5.6 kg/ha) was 3 (75-100). The Herbicidal rating (Downy Brome [13]; 0.28 kg/ha) was 0 (0-24), the Herbicidal rating (Downy Brome [13]; 1.12 kg/ha) was 0 (0-24) and the Herbicidal rating (Downy Brome [13]; 5.6 kg/ha) was 0 (0-24). The Herbicidal rating (Lambsquarters [14]; 0.28 kg/ha) was 0 (0-24), the Herbicidal rating (Lambsquarters [14]; 1.12 kg/ha) was 2 (50-74) and the Herbicidal rating (Lambsquarters [14]; 5.6 kg/ha) was 3 (75-100). The Herbicidal rating (Hemp Sesbania; 0.28 kg/ha) was 0 (0-24), the Herbicidal rating (Hemp Sesbania; 1.12 kg/ha) was 0 (0-24) and the Herbicidal rating (Hemp Sesbania; 5.6 kg/ha) was 3 (75-100).
